Assay results taken from patent US20140363378A1, “SELF-ASSEMBLING MOLECULES THAT ACCUMULATE IN ACIDIC TUMOR MICROENVIRONMENTS” (The Ohio State University, priority 2012, published 2014).
Peptide text beside a SMILES is read from it. * marks the point of attachment. Palmitoyl = CCCCCCCCCCCCCCCC(=O)*; DO3A:Gd = Gd-chelated DO3A

How the values were obtained:
Format in all cases: physicochemical
[1] = pH titration of peptide amphiphiles; conditions: aqueous solution of 150 mM NaCl and 2.2 mM CaCl2, glutamic acid residues, 10 μM PA
Method: The titration measurements were conducted on 10 μM peptide amphiphile solutions prepared in 150 mM NaCl and 2.2 mM CaCl2 using milli-Q water. The solution was heated at 80° C. for 30 minutes followed by slow cooling at room temperature. The pH of the solution was then adjusted to 4 using HCl. Finally, an Accumet XL15 pH meter (Fisher Scientific) coupled with an Orion Ross Ultra semi-micro electrode (8103BNUWP, Thermo Scientific) was used to track changes in pH of the solution as NaOH solution was added in small increments. pKa values were obtained from the second inflection points of the first derivative plots of the titration data. The first transition corresponds to neutralization of excess HCl. The calculated pKas reflect the average pKa for all four glutamic acids.

[2] = Transmission electron microscopy (TEM) of self-assembled morphology; conditions: 0.5 mM PA
Method: At a pH of 7.75, HCl was added until the pH was 6.1, and the resulting β-sheet CD spectrum was collected within three minutes. An appropriate amount of NaOH was then added to reverse the pH back to 7.70, and random coil behavior was observed again. […] Conventional transmission electron microscopy (TEM) imaging was used to determine the morphology of 10 μM of PA 1, at pH values of 6 and 8 (FIG. 6A, 6B). The TEM grids were prepared within three minutes of pH adjustment. […] This nanofiber diameter corresponds roughly to twice the molecular length based on MM+ molecular simulations, corresponding approximately to the expected diameter of cylindrical fibers consisting of hydrophobically collapsed β-sheets.
TEM images were obtained using solutions of either 10 μM or 0.5 mM peptide amphiphile concentration, as well as 150 mM NaCl and 2.2 mM CaCl2 in Milli-Q water. The solutions were first heated at 80° C. for 30 minutes in a water bath and then gradually cooled to room temperature. This was followed by pH adjustment using either HCl or NaOH. 5 μL of this solution was pipetted onto a Carbon Formvar grid (Electron Microscopy Sciences) and allowed to sit for 2 minutes before being wicked dry using filter paper. For the 10 μM experiments that were performed to determine the time dependence of nanofiber formation, solutions were dropcast onto the grid within three minutes of pH adjustment. […]

[3] = Circular dichroism (CD) spectroscopy of pH-triggered self-assembly transition; conditions: for each concentration (10 μM, 500 μM)
Method: The target PA concentration (10 μM) was below the detectable limit of conventional techniques to determine the morphology such as cryoTEM and small-angle X-ray scattering. Consequently, circular dichroism (CD) spectroscopy was initially used to characterize the morphology of these PAs at various pH values. PA 1 was the first molecule synthesized that underwent a self-assembly transition in the desired pH range of 6.6-7.4 at 10 μM PA concentration, in 150 mM NaCl and 2.2 mM CaCl2 (FIG. 2A) (Goldberger, J. E., et al. Angew. Chem. Int. Ed. 2011 50:6292-95). […] The transition pH from random coil to β-sheet occurred at a pH of 6.6. The transition pH was defined as the value at which the ellipticity at 205 nm rises to zero, followed by the appearance of a minimum at 218-220 nm.
Measurements were done on a Jasco-815 Circular Dichroism spectrometer using 1 cm path length quartz cuvettes. […] Double deionized Milli-Q water was used for preparing all solutions. The solutions were then heated at 80° C. for 30 minutes in a water bath and gradually cooled to room temperature. […]

| Molecule | pKa [1] | other results |
| --- | --- | --- |
| CCCCCCCCCCCCCCCC(=O)N[C@H](C(=O)N[C@@H](C)C(=O)N[C@@H](C)C(=O)N[C@@H](C)C(=O)N[C@@H](CCC(=O)O)C(=O)N[C@@H](CCC(=O)O)C(=O)N[C@@H](CCC(=O)O)C(=O)N[C@@H](CCC(=O)O)C(N)=O)[C@@H](C)CC [PA 1] (Palmitoyl-IAAAEEEE-NH2) | 4.66 ± 0.1 | – |
| Palmitoyl-IAAAEEEEK(DO3A:Gd)-NH2 (also: Gd complex of DO3A) [PA 5] | – | diameter of nanofibers ([2]; pH 4): 11.9±1.6 nm; diameter of spherical micelles ([2]; pH 10): 10.0±1.2 nm |
| Palmitoyl-VAAAEEEEK(DO3A:Gd)-NH2 (also: Gd complex of DO3A) [PA 6] | – | nanofiber to micelle transition pH, lower than PA 5 by [3]: 0.4 units |

Further lines, with some results ahead:

| pKa [1] | Molecule | other results |
| --- | --- | --- |
| 4.94 ± 0.09 | CCCCCCCCCCCCCCCC(=O)N[C@@H](Cc1ccccc1)C(=O)N[C@@H](C)C(=O)N[C@@H](C)C(=O)N[C@@H](C)C(=O)N[C@@H](CCC(=O)O)C(=O)N[C@@H](CCC(=O)O)C(=O)N[C@@H](CCC(=O)O)C(=O)N[C@@H](CCC(=O)O)C(N)=O [PA 2] (Palmitoyl-FAAAEEEE-NH2) | – |
| 4.86 ± 0.11 | CCCCCCCCCCCCCCCC(=O)N[C@H](C(=O)N[C@@H](C)C(=O)N[C@@H](C)C(=O)N[C@@H](C)C(=O)N[C@@H](CCC(=O)O)C(=O)N[C@@H](CCC(=O)O)C(=O)N[C@@H](CCC(=O)O)C(=O)N[C@@H](CCC(=O)O)C(N)=O)C(C)C [PA 3] (Palmitoyl-VAAAEEEE-NH2) | – |
| 4.7 ± 0.1 | CCCCCCCCCCCCCCCC(=O)N[C@@H](Cc1ccc(O)cc1)C(=O)N[C@@H](C)C(=O)N[C@@H](C)C(=O)N[C@@H](C)C(=O)N[C@@H](CCC(=O)O)C(=O)N[C@@H](CCC(=O)O)C(=O)N[C@@H](CCC(=O)O)C(=O)N[C@@H](CCC(=O)O)C(N)=O [PA 4] (Palmitoyl-YAAAEEEE-NH2) | – |
